According to ChEMBL document CHEMBL4043272, “Synthesis and in vitro biological evaluation of new pyrimidines as glucagon-like peptide-1 receptor agonists” (Bioorg Med Chem Lett, 2017):
Calls of active or inactive are those of the source. The calls are words filed in the database; no cut-off is given here.

Assays:
Format in all cases: cell-based
[1] = target: T1, Glucagon-like peptide 1 receptor (Mus musculus) (UniProt O35659); assay: Agonist activity at GLP1 receptor in mouse BetaTC6 cells assessed as increase in insulin secretion at 10^-15 to 10^-12 M after 120 mins by sandwich ELISA
T1 sequence (whole entry): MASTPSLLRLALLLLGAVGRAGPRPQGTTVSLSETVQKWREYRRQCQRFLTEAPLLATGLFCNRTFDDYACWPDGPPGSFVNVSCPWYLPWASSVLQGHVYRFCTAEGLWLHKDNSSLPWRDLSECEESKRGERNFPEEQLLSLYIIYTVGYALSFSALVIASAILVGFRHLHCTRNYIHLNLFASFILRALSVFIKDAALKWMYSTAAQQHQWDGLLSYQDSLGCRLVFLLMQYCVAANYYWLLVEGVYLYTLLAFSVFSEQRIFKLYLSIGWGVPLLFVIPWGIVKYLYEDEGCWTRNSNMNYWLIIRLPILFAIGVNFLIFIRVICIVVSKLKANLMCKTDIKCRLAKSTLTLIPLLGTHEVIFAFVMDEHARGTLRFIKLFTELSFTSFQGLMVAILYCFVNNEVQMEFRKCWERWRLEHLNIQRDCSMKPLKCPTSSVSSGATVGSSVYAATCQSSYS

[2] = target: T1, Glucagon-like peptide 1 receptor (Mus musculus); assay: Agonist activity at GLP1 receptor in mouse BetaTC6 cells assessed as increase in glucose-dependent insulin secretion at 10^-15 to 10^-9 M after 120 mins by sandwich ELISA
[3] = target: T1, Glucagon-like peptide 1 receptor (Mus musculus); assay: Agonist activity at GLP1 receptor in mouse BetaTC6 cells assessed as increase in insulin secretion at 10^-15 to 10^-9 M after 120 mins by sandwich ELISA
[4] = target: T1, Glucagon-like peptide 1 receptor (Mus musculus); assay: Agonist activity at GLP1 receptor in mouse BetaTC6 cells assessed as increase in glucose-dependent insulin secretion after 120 mins by sandwich ELISA
[5] = target: T1, Glucagon-like peptide 1 receptor (Mus musculus); assay: Agonist activity at GLP1 receptor in mouse BetaTC6 cells assessed as increase in glucose-dependent insulin secretion at 10^-15 M after 120 mins by sandwich ELISA

Row | Compound | Activity [1] | Activity [2] | Activity [3] | Activity [4] | Activity [5]
1 | O=C(Nc1nccc(N/N=C/c2ccc(F)cc2)n1)NC1CCCC1 | Active | inactive |  |  | 
2 | Cc1ccc(S(=O)(=O)NC(=O)Nc2ccnc(N)n2)cc1 |  |  | Active | inactive | 
3 | c1ccc(CNc2ccnc(NC3CCCCCC3)n2)cc1 | Active |  |  |  | Active
